Experimental data: patent US10435405B2, “Pyrazolopyridine compounds and uses thereof” (Incyte Corporation, priority 2016, dated 2019)

Molecular target: HPK1 (Homo sapiens (Human), UniProt Q92918)
Experiment: HPK1 Kinase Binding Assay
Protocol: A stock solution of 1 mM test compound was prepared in DMSO. The compound plate was prepared by 3-fold and 11-point serial dilutions. 0.1 μL of the compound in DMSO was transferred from the compound plate to the white 384 well polystyrene plates. The assay buffer contained 50 mM HEPES, pH 7.5, 0.01% Tween-20, 5 mM MgCl2, 0.01% BSA, and 5 mM DTT. 5 μl of 4 nM active HPK1 (SignalChem M23-11G) prepared in the buffer was added to the plate. The enzyme concentration given was based on the given stock concentration reported by the vender. 5 μl of 18 nM tracer 222 (ThermoFisher PV6121) and 4 nM LanthaScreen Eu-Anti GST antibody (ThermoFisher PV5595) were added. After one hour incubation at 25° C., the plates were read on a PHERAstar FS plate reader (BMG Labtech). Ki values were determined.

Sequence of HPK1 (Q92918 1-346): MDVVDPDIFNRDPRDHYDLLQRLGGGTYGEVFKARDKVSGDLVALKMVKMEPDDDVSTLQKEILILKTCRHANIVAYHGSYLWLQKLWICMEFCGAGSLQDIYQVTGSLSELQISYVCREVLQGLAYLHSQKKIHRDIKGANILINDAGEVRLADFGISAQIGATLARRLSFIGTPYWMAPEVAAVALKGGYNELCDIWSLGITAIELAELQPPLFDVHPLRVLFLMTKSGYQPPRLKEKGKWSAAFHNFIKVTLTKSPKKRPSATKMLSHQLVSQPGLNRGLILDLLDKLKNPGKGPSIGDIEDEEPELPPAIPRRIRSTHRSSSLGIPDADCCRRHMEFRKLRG

Compound: CC(C)NCc1cc(F)c(-c2cc3c(NC(=O)c4ccc(F)c(N5CCN(C)CC5)c4)n[nH]c3cn2)c(F)c1 [Example 151, N-(5-(2,6-Difluoro-4-((isopropylamino)methyl)phenyl)-1H-pyrazolo[3,4-c]pyridin-3-yl)-4-fluoro-3-(4-methylpiperazin-1-yl)benzamide]
- Ki: ≤ 100 nM

Compound: CCn1cc(-c2n[nH]c3cnc(-c4c(C)cc(C5CCCCN5)cc4F)cc23)cn1 (single isomer, unassigned) [Example 230, 3-(1-Ethyl-1H-pyrazol-4-yl)-5-(2-fluoro-6-methyl-4-(piperidin-2-yl)phenyl)-1H-pyrazolo[3,4-c]pyridine]
- Ki: ≤ 100 nM

Compound: Cn1cc(-c2n[nH]c3cnc(-c4c(F)cc(NC(=O)CN5C6CCC5CC6)cc4F)cc23)cn1 [Example 68, 2-(7-Azabicyclo[2.2.1]heptan-7-yl)-N-(3,5-difluoro-4-(3-(1-methyl-1H-pyrazol-4-yl)-1H-pyrazolo[3,4-c]pyridin-5-yl)phenyl)acetamide]
- Ki: ≤ 100 nM

Compound: CNCc1cc(F)c(-c2cc3c(-c4cnn(CCO)c4)n[nH]c3cn2)c(F)c1 [Example 164, 2-(4-(5-(2,6-Difluoro-4-((methylamino)methyl)phenyl)-1H-pyrazolo[3,4-c]pyridin-3-yl)-1H-pyrazol-1-yl)ethanol]
- Ki: ≤ 100 nM

Compound: Cc1cc(C2CCCCN2)cc(F)c1-c1cc2c(-c3cnn(C)c3)n[nH]c2cn1 (single isomer, unassigned) [Example 174, 5-(2-Fluoro-6-methyl-4-(piperidin-2-yl)phenyl)-3-(1-methyl-1H-pyrazol-4-yl)-1H-pyrazolo[3,4-c]pyridine]
- Ki: ≤ 100 nM

Compound: COc1cccc(F)c1-c1cc2c(-n3cnc(C(=O)NC(C)C)c3)n[nH]c2cn1 [Example 104, 1-(5-(2-Fluoro-6-methoxyphenyl)-1H-pyrazolo[3,4-c]pyridin-3-yl)-N-isopropyl-1H-imidazole-4-carboxamide]
- Ki: ≤ 100 nM

Compound: CNC(=O)c1ccc(-c2n[nH]c3cnc(-c4c(F)cccc4OC)cc23)cc1OC [Example 102, 4-(5-(2-Fluoro-6-methoxyphenyl)-1H-pyrazolo[3,4-c]pyridin-3-yl)-2-methoxy-N-methylbenzamide]
- Ki: ≤ 100 nM

Compound: CNCc1cc(F)c(-c2cc3c(-c4ccc(C5CC5)nc4)n[nH]c3cn2)c(C(F)(F)F)c1 [Example 120, 1-(4-(3-(6-Cyclopropylpyridin-3-yl)-1H-pyrazolo[3,4-c]pyridin-5-yl)-3-fluoro-5-(trifluoromethyl)phenyl)-N-methylmethanamine]
- Ki: ≤ 100 nM

Compound: CNC1CCc2c1cc(C)c(-c1cc3c(-c4cnn(C)c4)n[nH]c3cn1)c2F (single isomer, unassigned) [Example 239, 4-Fluoro-N,6-dimethyl-5-(3-(1-methyl-1H-pyrazol-4-yl)-1H-pyrazolo[3,4-c]pyridin-5-yl)-2,3-dihydro-1H-inden-1-amine]
- Ki: ≤ 100 nM

Compound: CNC(=O)c1ccc(-c2n[nH]c3cnc(-c4c(F)cc5c(c4F)CCCC5NC)cc23)cc1 (stereo not shown) [Example 201, 4-(5-(1,3-Difluoro-5-(methylamino)-5,6,7,8-tetrahydronaphthalen-2-yl)-1H-pyrazolo[3,4-c]pyridin-3-yl)-N-methylbenzamide]
- Ki: ≤ 100 nM

Compound: Cn1cc(-c2n[nH]c3cnc(-c4c(F)cc5c(c4F)C(N)CC5)c(F)c23)cn1 (stereo not shown) [Example 216, 5,7-Difluoro-6-(4-fluoro-3-(1-methyl-1H-pyrazol-4-yl)-1H-pyrazolo[3,4-c]pyridin-5-yl)-2,3-dihydro-1H-inden-1-amine]
- Ki: ≤ 100 nM

Compound: Cn1cc(-c2n[nH]c3cnc(-c4c(F)cc(OCc5ccncc5)cc4F)cc23)cn1 [Example 108, 5-(2,6-Difluoro-4-(pyridin-4-ylmethoxy)phenyl)-3-(1-methyl-1H-pyrazol-4-yl)-1H-pyrazolo[3,4-c]pyridine]
- Ki: ≤ 100 nM

Compound: Cc1cccc(C)c1-c1cc2c(-c3ccc(N4CCN(C)CC4)cc3)n[nH]c2cn1 [Example 45, 5-(2,6-Dimethylphenyl)-3-(4-(4-methylpiperazin-1-yl)phenyl)-1H-pyrazolo[3,4-c]pyridine]
- Ki: ≤ 100 nM

Compound: CN1CCN(c2ccc(C(=O)Nc3n[nH]c4cnc(-c5c(F)cc(NC(=O)CN6CCCC6)cc5F)cc34)cc2)CC1 [Example 156, N-(5-(2,6-Difluoro-4-(2-(pyrrolidin-1-yl)acetamido)phenyl)-1H-pyrazolo[3,4-c]pyridin-3-yl)-4-(4-methylpiperazin-1-yl)benzamide]
- Ki: ≤ 100 nM

Compound: COCCNC(=O)Nc1cc(F)c(-c2cc3c(-c4cnn(C)c4)n[nH]c3cn2)c(F)c1 [Example 71, 1-(3,5-Difluoro-4-(3-(1-methyl-1H-pyrazol-4-yl)-1H-pyrazolo[3,4-c]pyridin-5-yl)phenyl)-3-(2-methoxyethyl)urea]
- Ki: ≤ 100 nM

Compound: CC(C)NCc1cc(F)c(-c2cc3c(NC(=O)c4ccc(N5CCN(C)CC5)cc4)n[nH]c3cn2)c(F)c1 [Example 140, N-(5-(2,6-Difluoro-4-((isopropylamino)methyl)phenyl)-1H-pyrazolo[3,4-c]pyridin-3-yl)-4-(4-methylpiperazin-1-yl)benzamide]
- Ki: ≤ 100 nM

Compound: CNCc1cc(F)c(-c2cc3c(NC(=O)c4cccc(N5CCN(C)CC5)c4)n[nH]c3cn2)c(F)c1 [Example 145, N-(5-(2,6-Difluoro-4-((methylamino)methyl)phenyl)-1H-pyrazolo[3,4-c]pyridin-3-yl)-3-(4-methylpiperazin-1-yl)benzamide]
- Ki: ≤ 100 nM

Compound: Cn1cc(-c2n[nH]c3cnc(-c4c(F)cc(NC(=O)CN5CCC5)c(F)c4F)cc23)cn1 [Example 77, 2-(Azetidin-1-yl)-N-(2,3,5-trifluoro-4-(3-(1-methyl-1H-pyrazol-4-yl)-1H-pyrazolo[3,4-c]pyridin-5-yl)phenyl)acetamide]
- Ki: ≤ 100 nM

Compound: Cc1cc(CN2CCC2)cc(F)c1-c1cc2c(-c3cnn(C)c3)n[nH]c2cn1 [Example 182, 5-(4-(Azetidin-1-ylmethyl)-2-fluoro-6-methylphenyl)-3-(1-methyl-1H-pyrazol-4-yl)-1H-pyrazolo[3,4-c]pyridine]
- Ki: ≤ 100 nM

Compound: COC1CN(Cc2cc(F)c(-c3cc4c(NC(=O)c5ccc(N6CCN(C)CC6)cc5)n[nH]c4cn3)c(F)c2)C1 [Example 143, N-(5-(2,6-Difluoro-4-((3-methoxyazetidin-1-yl)methyl)phenyl)-1H-pyrazolo[3,4-c]pyridin-3-yl)-4-(4-methylpiperazin-1-yl)benzamide]
- Ki: ≤ 100 nM

Compound: CCN1CCN(c2ccc(C(=O)Nc3n[nH]c4cnc(-c5c(F)cccc5OC)cc34)cc2)CC1 [Example 28, 4-(4-Ethylpiperazin-1-yl)-N-(5-(2-fluoro-6-methoxyphenyl)-1H-pyrazolo[3,4-c]pyridin-3-yl)benzamide]
- Ki: ≤ 100 nM

Compound: Cc1c(CN2CC(C)(C)C2)ccc(F)c1-c1cc2c(-c3cnn(C)c3)n[nH]c2cn1 [Example 221, 5-(3-((3,3-Dimethylazetidin-1-yl)methyl)-6-fluoro-2-methylphenyl)-3-(1-methyl-1H-pyrazol-4-yl)-1H-pyrazolo[3,4-c]pyridine]
- Ki: ≤ 100 nM

Compound: Cn1cc(-c2n[nH]c3cnc(-c4c(F)cc(NC(=O)CN5CC6(CCOCC6)C5)cc4F)cc23)cn1 [Example 69, N-(3,5-Difluoro-4-(3-(1-methyl-1H-pyrazol-4-yl)-1H-pyrazolo[3,4-c]pyridin-5-yl)phenyl)-2-(7-oxa-2-azaspiro[3.5]nonan-2-yl)acetamide]
- Ki: ≤ 100 nM

Compound: COc1cccc(F)c1-c1cc2c(NC(=O)c3cccc(N4CCN(C)CC4)c3)n[nH]c2cn1 [Example 18, N-(5-(2-Fluoro-6-methoxyphenyl)-1H-pyrazolo[3,4-c]pyridin-3-yl)-3-(4-methylpiperazin-1-yl)benzamide]
- Ki: ≤ 100 nM

Compound: CNCc1cc(F)c(-c2cc3c(-c4cnc(N5CCC(O)CC5)nc4)n[nH]c3cn2)c(F)c1 [Example 218, 1-(5-(5-(2,6-Difluoro-4-((methylamino)methyl)phenyl)-1H-pyrazolo[3,4-c]pyridin-3-yl)pyrimidin-2-yl)piperidin-4-ol]
- Ki: ≤ 100 nM

Compound: Cc1cccc(F)c1-c1cc2c(NC(=O)c3ccc(N4CCN(C)CC4)cc3NCC(C)O)n[nH]c2cn1 (stereo not shown) [Example 158, N-(5-(2-Fluoro-6-methylphenyl)-1H-pyrazolo[3,4-c]pyridin-3-yl)-2-(2-hydroxypropylamino)-4-(4-methylpiperazin-1-yl)benzamide]
- Ki: ≤ 100 nM

Compound: Cn1cc(-c2n[nH]c3cnc(-c4c(F)cc(CNCCO)cc4F)cc23)cn1 [Example 126, 2-(3,5-Difluoro-4-(3-(1-methyl-1H-pyrazol-4-yl)-1H-pyrazolo[3,4-c]pyridin-5-yl)benzylamino)ethanol]
- Ki: ≤ 100 nM

Compound: Cc1cc(CNC2CC2)cc(F)c1-c1cc2c(-c3cnn(C)c3)n[nH]c2cn1 [Example 177, N-(3-Fluoro-5-methyl-4-(3-(1-methyl-1H-pyrazol-4-yl)-1H-pyrazolo[3,4-c]pyridin-5-yl)benzyl)cyclopropanamine]
- Ki: ≤ 100 nM

Compound: CN1CCN(c2ccc(-c3n[nH]c4cnc(-c5c(F)cccc5CC#N)cc34)cc2)CC1 [Example 194, 2-(3-Fluoro-2-(3-(4-(4-methylpiperazin-1-yl)phenyl)-1H-pyrazolo[3,4-c]pyridin-5-yl)phenyl)acetonitrile]
- Ki: ≤ 100 nM

Compound: CNCc1cc(F)c(-c2cc3c(-c4ccnc(N5CCN(C)CC5)c4)n[nH]c3cn2)c(F)c1 [Example 163, 1-(3,5-Difluoro-4-(3-(2-(4-methylpiperazin-1-yl)pyridin-4-yl)-1H-pyrazolo[3,4-c]pyridin-5-yl)phenyl)-N-methylmethanamine]
- Ki: ≤ 100 nM

Compound: Cc1c(CNC(C)C)ccc(F)c1-c1cc2c(-c3cnn(C)c3)n[nH]c2cn1 [Example 93, N-(4-Fluoro-2-methyl-3-(3-(1-methyl-1H-pyrazol-4-yl)-1H-pyrazolo[3,4-c]pyridin-5-yl)benzyl)propan-2-amine]
- Ki: ≤ 100 nM
